From patent publication US10947188B2, “Small molecule ferroptosis inducers” (THE TRUSTEES OF COLUMBIA UNIVERSITY IN THE CITY OF NEW YORK, priority 2016, dated 2021)
≈ marks a conversion by molar mass, not a printed value. One block for each compound: values may come before it.

Experiments:
HT-1080 cells [1] = test: Lethality of commercially available CIL41/70 structural analogs; type: cell-based; conditions: Homo sapiens, tested once in technical triplicates
In short: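 HT-1080 cells (1,000/well) dosed at seeding with twofold 12-point dilutions of lethal compounds. Viability read by Alamar Blue fluorescence (530/590 nm) after 6 h, normalized to media and vehicle wells. Analogs tested once, in technical triplicate.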

HT-1080 cells [2] = test: Analysis of lipid ROS generation (C11-BODIPY 581/591 flow cytometry); type: cell-based; conditions: HT-1080; 6 h; with or without deferoxamine
Procedure: Cells were treated with test compounds, trypsinized, pelleted, and washed once with PBS. For lipophilic or aqueous ROS detection, cells were re-suspended in Hanks' Balanced Salt Solution (HBSS; […] Cells were then pelleted, re-suspended in 500 μL HBSS, strained through a 40-μm cell strainer (BD Falcon), and analyzed using a BD Accuri C6 flow cytometer (BD Biosciences). Both dyes were measured in the FL1 channel. Experiments were done in biological triplicates.

[3] = tested on: glutathione (GSH and GSSG) in HT-1080 cells; test: Glutathione-quantification assay; type: cell-based; conditions: 5 μM FIN56 with 100 μM α-tocopherol; 10 h
Procedure: Seeded 500,000 HT-1080 cells in a 10-cm dish. Cells were grown at 37° C. for 16 h. On the day of the analysis, cells were cotreated with 100 μM α-tocopherol and either vehicle (DMSO) or a ferroptosis inducer (10 μM erastin, 0.5 μM (1S,3R)-RSL3, or 5 μM FIN56) and incubated for 10 h. Cells were then trypsinized, pelleted, washed once with 400 μL of ice-cold PBS containing 1 mM EDTA, and sonicated. After the cell debris had been pelleted and removed, both oxidized and reduced glutathione in 120 μL of sample was quantified in technical triplicates using the QuantiChrome glutathione assay kit (BioAssay Systems). The glutathione quantity was normalized to the protein concentration measured via Bradford assay (Bio-Rad).

GPX1 = test: Western blotting of GPX1 protein abundance; type: cell-based, human; conditions: BJeLR; FIN56 5 μM, 10 h
Procedure: Seeded 300,000 cells (HT-1080 or BJeLR) per well in six-well plates. For cotreatment, ferroptosis inducers (10 μM erastin for 11 h, 0.5 μM (1S, 3R)-RSL3 for 2 h, or 5 μM FIN56) and 100 μM α-tocopherol were added to cell culture at the same time, and cells were then incubated for 10 h (FIG. 2E). When other death-modulating compounds (100 nM sodium selenite, 1 μM cerivastatin, 100 μg/mL mevalonic acid, 30 μM C75, or 2 μM cerulenin) were used in cotreatments, cells were pre-incubated with the modulators for 24 h before being treated with ferroptosis inducers for 6 h. Cell lysis, SDS-PAGE and protein transfer to PVDF membrane were performed as previously described (Dixon et al. 2012). We used the following antibodies: anti-human α-tubulin (Santa Cruz Biotechnology, sc-32293, 1:10,000 dilution), anti-human GPX4 (Abcam, ab41787, 1:2,000 dilution), anti-human GPX1 (R&D Systems, AF3798, 1:1,000 dilution), and anti-human SQS (Abcam, ab109723 for full-length, ab195046 for truncated, both at 1:1,000 dilution). Secondary antibodies were from LI-COR (1:3,000 dilution). The PVDF membranes labeled with primary and secondary antibodies were scanned using an Odyssey Imaging System (LI-COR). Experiments were performed in biological triplicates, and the mean±s.e. of intensity was plotted.

NCI60 cell line panel = test: Cell-line selectivity in the NCI60 cell line panel; type: cell-based
Description: Previously reported ferroptosis inducers either deplete glutathione (by inhibiting cystine uptake) or are covalent GPX4 inhibitors.

GPX4 = molecular target: T1, GPX4 (Homo sapiens, UniProt P36969); test: GPX4 enzymatic activity assay in lysates of treated cells (LC-MS); type: cell-based; conditions: BJeLR; 5 μM FIN56 for 10 h
T1 construct: Cells were sonicated to make cell lysates that were then cleared by centrifugation; endogenous in cells; host or cells: BJeLR cells (lysate of compound-treated cells)
T1 sequence (P36969 1-197): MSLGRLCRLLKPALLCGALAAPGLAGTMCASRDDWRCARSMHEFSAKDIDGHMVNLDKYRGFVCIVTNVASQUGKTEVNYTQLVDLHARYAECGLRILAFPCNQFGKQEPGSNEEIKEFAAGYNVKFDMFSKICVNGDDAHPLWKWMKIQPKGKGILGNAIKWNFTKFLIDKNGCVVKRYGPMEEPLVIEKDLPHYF
Procedure: Seeded 17 million BJeLR cells in 225-cm^2 tissue culture flasks (Corning). We then added vehicle (0.1% DMSO for 11 h) or test compound (10 μM erastin for 11 h, 0.5 μM (1S,3R)-RSL3 for 2 h, or 5 μM FIN56 for 10 h). The GPX4 enzymatic activity assay was performed as described previously (Yang et al. 2014). Briefly, 10 million cells were resuspended in cell lysis buffer. Cells were sonicated to make cell lysates that were then cleared by centrifugation at 14,000 r.p.m. for 10 min. The protein concentration of the cleared cell lysates was determined via Bradford protein assay. Mixed 200 μg of cellular protein with phosphatidyl choline hydroperoxide, a GPX4-specific substrate, and reduced glutathione, a GPX4 cofactor. The mixture was incubated at 37° C. for 30 min and then subjected to lipid extraction using chloroform:methanol (2:1) solution. The lipid extract was evaporated using a Rotavap and re-dissolved in 100% ethanol before being injected into the LC-MS instrument for 2-linoleoyl1-palmitoyl-sn-glycero-3-phosphocholine (PLPC) quantitation.

SMILES: N/C(=N\OC(=O)C12CC3CC(CC(C3)C1)C2)c1ccccc1 [CIL41]
EC50 (HT-1080 cells [1]): 2.8 µg/mL (≈ 9.38 µM)

SMILES: O=S(=O)(c1ccc2c(c1)C(=NO)c1cc(S(=O)(=O)N3CCCCC3)ccc1-2)N1CCCCC1 [CIL56, 2,7-bis(piperidin-1-ylsulfonyl)-9H-fluoren-9-one oxime]
lipid ROS generation (BODIPY-581/591 C11) (HT-1080 cells [2]): induced iron-dependent ROS

GPX4 activity in cell lysates (GPX4): loss of GPX4 activity
SMILES: O=S(=O)(NC1CCCCC1)c1ccc2c(c1)C(=NO)c1cc(S(=O)(=O)NC3CCCCC3)ccc1-2 [FIN56, N2,N7-dicyclohexyl-9-(hydroxyimino)-9H-fluorene-2,7-disulfonamide]
glutathione depletion [3]: did not deplete glutathione | abundance of GPX1 protein (GPX1): but not that of the related selenoprotein GPX1, was substantially decreased | cell-line selectivity pattern in NCI60 (NCI60 cell line panel): more similar to other GPX4 inhibitors than to GSH-depleting compounds
